Test results taken from EP4108244A1, “SS-LACTAM ANTIBIOTIC WITH SIGNIFICANT ACTIVITY AGAINST CANCER E.G. COLON MALIGNANCIES” (priority 2021, dated 2022).
Marks after values point to notes of the source that are not given here.

Columns and labels:
[1] = Body weight and survival in the xenograft model; type: in vivo, NOD/SCID mice
Procedure: Twelve NOD/SCID mice were randomly distributed into two groups (6 mice/group). HCT-116 colon cancer cells (3.5 million) suspended in sterile physiological solution (0.9% NaCl) were injected subcutaneously into the flank of 4 to 6-week old mice. Animals were kept in a light- and temperature-controlled environment and provided with food and water ad libitum. The tumor size was monitored and determined three times per week using a sterile Vernier caliper. Tumor volume was calculated by the following formula: Volume=π/6^∗(length × width × height). Once the tumor size reached seven mm^3, mice were treated three times per week for 21 days with intraperitoneal injections of vehicle (control group) or ceftazidime (10 mg/mouse). Growth delay was assessed by comparing the size of tumors in treated animals to those of control animals. Ethical approval was obtained before the beginning of the experiments.

[2] = test system: DLD-1 cells; test: Caspase-3/7 activity assay; type: cell-based, human; conditions: CFT 100 µg/ml alone, vs. control untreated cells
Procedure: (§1) Caspase-3/7 activity was measured 48 h and 72 h post-treatment according to the manufacturer's protocol (Caspase-Glo-3/7 Assay, Promega Corp, Madison, WI, USA). Briefly, equal volume from treated cells and caspase-3/7 mixture were incubated at room temperature for 3 h and the luminescence was measured by a microplate reader.
as §1, with “DLD-1 cells were treated with CFT (100 µg/ml) or 5-Fluorouracil (16 µM). Caspase-3/7” for “Caspase-3/7”, “caspase 3/7” for “caspase-3/7”

[3] = test system: RAW 264.7 cells; test: MTT metabolic activity assay on macrophages; type: cell-based, murine
Procedure: Cells were plated at 2^∗104cells/ml in 96-well plates and incubated overnight. The following day, cells were treated in triplicate with Ceftazdime or 5-fluorouracil for 24-48 h, depending on the cell line used. Metabolic activity of the cells was studied using the MTT assay that measures the ability of metabolically active cells to convert tetrazolium salt into a blue formazan product, the absorbance of which is recorded at 540 nm by an ELISA reader (Bio-Rad iMark Microplate Reader).

[4] = test system: HCT-116 cells; test: Antibiotics' uptake by the cells, LC-MS/MS; conditions: for Concentration of CFT, Lysate / Concentration of CFT, Supernatant: CFT 100 µg/ml alone or + 5-FU 8 µM
Procedure: (§2) This step was repeated three times and cell homogenate were vortexed at high-speed prior extraction. 40 µl from each supernatant and cell suspension were combined with 200 µl of internal standard working solution prepared in ice-cold methanol. Samples were then centrifuged and 100 µl of the supernatant were diluted with 400 µl water in glass vials prior analysis with LC-/MS/MS.

[5] = test system: DLD-1 cells; test: Antibiotics' uptake by the cells, LC-MS/MS; conditions: for Concentration of CFT, Lysate / Concentration of CFT, Supernatant: CFT 100 µg/ml alone or + 5-FU 16 µM
Procedure: as §2

[6] = test system: HCT-116 cells; test: Caspase-3/7 activity assay; type: cell-based, human; conditions: combined with 5-FU 8 µM, 48 and 72h, CFT 100 µg/ml, CFP 50 µg/ml
Procedure: as §1

[7] = test system: DLD-1 cells; test: Cell cycle distribution, propidium iodide staining; type: cell-based, human; conditions: for accumulation of dead cells in the pre-G1 phase vs. control: CFT alone
Procedure: Propidium iodide (PI) staining was used to evaluate the effect of the different treatments on the cell cycle. […] 48 h and 72 h post-treatment, collected cells were fixed with ice-cold ethanol (70%) and stored at - 20 °C for at least 2 h. Fixed cells, which were washed with PBS and incubated at 37 °C for 1 h with 50 µl RNase (1 mg/ml) (Sigma Aldrich, Germany), were stained for 15 minutes with PI (Molecular Probes, Eugene, Oregon, USA). Cell cycle was monitored using BD FACSDiva™ and the percentage of cells in the different phases of the cell cycle (pre-Gi, G0/G1, S, and G2/M) phases was determined using BD FACSDiva™ Software.
Propidium iodide (PI) staining was used to evaluate the effect of the different treatments (Ceftazidime (100 µg/ml) or 5-Fluorouracil (16 µM)) on the cell cycle profile of DLD-1 cells. Briefly, DLD-1 cells were plated at 5^∗104/ml and treated for 48 h and 72 h. Collected cells were fixed with ice-cold ethanol (70%) and stored at -20°C for at least 2 h. Fixed cells, which were washed with PBS and incubated at 37°C for 1 h with 50 µl RNase (1 mg/ml) (Sigma Aldrich, Germany), were stained for 15 minutes with PI (Molecular Probes, Eugene, Oregon, USA). Cell cycle was monitored using BD FACSDiva™ and the percentage of cells in the different phases of the cell cycle (pre-Gi, G0/G1, S, and G2/M) phases was determined using BD FACSDiva™ Software.

[8] = Stability in media, LC-MS/MS; type: physicochemical; conditions: antibiotic alone (CFP 50 µg/mL, CFT 100 µg/mL)
Procedure: B) CFT (100 µg/ml) ± 5-FU (8 µM and 16 µM). P value (a) (between antibiotic alone and 5-FU (8 µM)); P value (b) (between antibiotic alone and 5-FU (16 µM)), n = 3.

[9] = 48 h, CFT 100 µg/mL, CFP 50 µg/mL, 5-FU 16 µM, alone or combined, mean ± SE
[10] = 72 h, CFT 100 µg/mL, CFP 50 µg/mL, 5-FU 16 µM, alone or combined, mean ± SE

## CC(C)(O/N=C(\C(=O)N[C@@H]1C(=O)N2C(C(=O)[O-])=C(C[n+]3ccccc3)CS[C@H]12)c1csc(N)n1)C(=O)O [CFT, (6R,7R)-7-[[(2Z)-2-(2-amino-1,3-thiazol-4-yl)-2-(2-carboxypropan-2-yloxyimino)acetyl]amino]-8-oxo-3-(pyridin-1-ium-1-ylmethyl)-5-thia-1-azabicyclo[4.2.0]oct-2-ene-2-carboxylate]
[1]; after three weeks of treatment
  weight lost: 6.8%
[1]; after three weeks of treatment, 10 mg/mouse
  body weight: 19.8 g
[1]; day of the first treatment
  average weight of the mice: 21.3 g
[1]; three weeks of treatment
  mortality (in words): none of the animals died
[1]; vs. control animals, three weeks
  protective effect on body weight: 58%
[2]; 48 h
  increase of the activity of caspase 3/7: 20%
[2]; 72 h
  increase of the activity of caspase 3/7: 32.1%
[3]
  metabolic activity of macrophages (in words): restored to control untreated cells
[4]; HCT-116 cells, 2 h
  Concentration of CFT, Lysate: 0.047 ± 0.003
  Concentration of CFT, Supernatant: 96.900 ± 3.818
[4]; HCT-116 cells, 4 h
  Concentration of CFT, Lysate: 0.066 ± 0.012
  Concentration of CFT, Supernatant: 105.000 ± 4.168
[4]; HCT-116 cells, 6 h
  Concentration of CFT, Lysate: 0.056 ± 0.001
  Concentration of CFT, Supernatant: 96.750 ± 8.697
[4]; HCT-116 cells, 8 h
  Concentration of CFT, Lysate: 0.053 ± 0.010
  Concentration of CFT, Supernatant: 88.900 ± 8.326
[4]; HCT-116 cells, up to 8 h, CFT 100 µg/ml
  uptake of CFT: 0.047-0.066%
[4]; up to 8h
  average uptake in HCT-116 cells compared to DLD-1 cells: 2 folds
[4]; up to 8 h, CFT 100 µg/ml
  uptake in HCT-116 cells compared to DLD-1 cells: ~2.5 fold
[5]; 2 h
  Concentration of CFT, Lysate: 0.024 ± 0.003
  Concentration of CFT, Supernatant: 100.000 ± 2.970
[5]; 4 h
  Concentration of CFT, Lysate: 0.026 ± 0.002
  Concentration of CFT, Supernatant: 97.073 ± 5.728
[5]; 6 h
  Concentration of CFT, Lysate: 0.033 ± 0.003
  Concentration of CFT, Supernatant: 91.335 ± 7.637
[5]; 8 h
  Concentration of CFT, Lysate: 0.032 ± 0.001
  Concentration of CFT, Supernatant: 98.126 ± 5.940
[5]; up to 8h
  average uptake by the cells: around 0.02%
[5]; up to 8 h, CFT 100 µg/ml
  uptake of CFT: 0.019-0.025%
[6]
  effect on 5-FU-induced apoptosis (caspase 3/7, in words): antagonized 5-FU-induced apoptosis
[7]; [9]
  percentage of cells in G0/G1: 52.6 ± 3.3%
  percentage of cells in Pre G1: 9.3 ± 2.5^(a) %
  percentage of cells in S: 14.6 ± 3.2%
[7]; 48 h
  accumulation of dead cells in the pre-G1 phase vs. control: 1.9 fold
[7]; [10]
  percentage of cells in G0/G1: 38.2 ± 4.3^(a) %
  percentage of cells in G2/M: 12.0 ± 1.6^(a) %
  percentage of cells in Pre G1: 40.6 ± 5.2^(a) %
  percentage of cells in S: 8.4 ± 0.6%
[7]; 72h
  accumulation of dead cells in the pre-G1 phase vs. control: 9.4 fold
[8]; 2h in media
  Stability test, level in media: 104.4 ± 2.5
[8]; 8h in media
  Stability test, level in media: 103.4 ± 10.8
